# Values of other authors as cited in US20230112273A1, “Process for Producing an Aroma-Laden Gas, Aroma-Laden Gas, and Use of the Aroma-Laden Gas” (Döhler GmbH, priority 2020, published 2023).
# Conditions: listed beside the composition of the aromatic substances in the laden solid phase (beer, Exemplary Embodiment 1)
row,SMILES,Log P
1,CCCCCCCC(=O)OCC [octanoic acid ethyl ester],3.9
2,CCCCCCCCCC(=O)O [decanoic acid],3.96
3,CCC(C)CO (stereo not shown) [2-methyl-1-butanol],1.22
4,CCCCCC(=O)O [hexanoic acid],1.84

# Now from value to compound:
row,Log P,SMILES
1,2.12,CC(=O)OCCC(C)C [3-methylbutyl acetate]
2,1.22,CC(C)CCO [3-methyl-1-butanol]
3,0.69,CC(C)CO [isobutanol]
